What is called IC50 is the midpoint of a concentration-inhibition curve.

We go through 1 compound from article PMC10635799, “Analogs of FTY720 inhibit TRPM7 but not S1PRs and exert multimodal anti-inflammatory effects” (The Journal of General Physiology, 2023).

One data set concerns the target T1, mouse TRPM7 (Mus musculus, UniProt Q923J1).
T1 construct: expressed in transfected cells; host or cells: HEK 293T cells (CRL-3216; ATCC), transient transfection with jetOPTIMUS, co-transfected eGFP as a separate plasmid
Nature of the data set: Whole-cell patch clamp of TRPM7 current (IM7) in HEK 293T cells overexpressing mouse TRPM7. The format is cell-based. The method, then: To overexpress TRPM7, HEK 293T cells were plated at a density of 500,000 cells per well (day 0), transfected at 80–90% confluency (day 1), and were patched 24–36 h after transfection (day 2). TRPM7 overexpression was performed using WT mouse TRPM7 (2.5 µg plasmid DNA; [Desai et al., 2012]) and jetOPTIMUS DNA Transfection Reagent (101000006; Polyplus). To enhance the selection rate of TRPM7-overexpressing cells, eGFP (#22152; Addgene) was included at a 1:10 dilution (0.25 µg) and only GFP-positive cells were patched.
Whole-cell patch clamp electrophysiology was performed as described previously ([Schappe et al., 2022]). Briefly, the external solution contained (in mM) 140 Na-methanesulfonate, 5 Cs-gluconate, 2.5 CaCl2, and 10 HEPES, pH 7.4 (adjusted with NaOH), at an osmolality of 280–290 mOsm/kg. The internal pipette solution contained (in mM) 115 Cs-gluconate, 3 NaCl, 0.75 CaCl2, 10 HEPES, 10 HEDTA, 1.8 Cs4-BAPTA, and 2 Na2ATP, pH 7.3 (adjusted with CsOH), at an osmolality of 273 mOsm/kg. Intracellular free [Ca^2+] was estimated to be ∼100 nM using the online WEBMAXC standard calculator at https://somapp.ucdmc.ucdavis.edu/pharmacology/bers/maxchelator/webmaxc/webmaxcS.htm ([Bers et al., 2010]). Recordings were captured in pCLAMP 9 (Molecular Devices) using a 400-ms ramp protocol from −100 to +100 mV and a holding potential of 0 mV. Sampling was performed at 10 kHz with a 5 kHz low-pass band filter using an Axopatch 200B amplifier (Molecular Devices). All electrophysiology experiments were conducted at RT (∼23°C). […] Similarly, the minimum current for each inhibitor dose is taken as the stable minimum current observed after the drug has had time to exert an effect and after the flow-driven transient increase has subsided.
Data were analyzed using Microsoft Excel, Prism 9.5 (GraphPad Software), and Origin Pro 7.5 (OriginLab). Chemical structures were created using ChemDraw Professional 20.1.1 (PerkinElmer). Electrophysiology traces were plotted using Origin Pro 7.5, and the remaining data were plotted and statistically tested using Prism. Outliers were determined using the robust regression and outlier removal (ROUT) function within Prism. IC50 values were determined by plotting the percentage of maximum current observed as a function of applied drug concentration. A non-linear regression was fit using a standard Hill slope of −1.0 and the model: Y=100/[1+([Inhibitor]/IC50)]. Where appropriate, data are presented as individual values; otherwise the sample sizes and precision measures are indicated in the figure legends. P values of <0.05 were considered statistically significant.

In another data set the test system is S1P receptors. The note with it: ref Brinkmann et al., 2002; Zhu et al., 2007; cited from earlier work.
A further data set deals with BMDMs. In words: LPS-induced inflammation assay in WT and TRPM7 KO BMDMs (qRT-PCR). The format is cell-based, mice. The method, then:
All cells were cultured at 37°C with 5% CO2. HEK 293T cells (CRL-3216; ATCC), HeLa cells (CCL-2; ATCC), RAW 264.7 macrophages (TIB-71; ATCC), and BV-2 microglial cells (ABC-TC212S; AcceGen Biotech) were cultured in DMEM (11995065; Gibco) with 10% fetal bovine serum (FBS; Avantor Seradigm Premium Grade Fetal Bovine Serum 97068-085). FBS was heat-inactivated prior to use at 56°C for 30 min. BMDMs were isolated and cultured as previously described ([Schappe et al., 2018]) and differentiated into mature macrophages over 7 d through culture in BMDM media (RPMI 1640, 10% FBS, and 20% L-929 culture supernatant; Gibco).
RAW 264.7 macrophages or BMDMs were seeded at a density of 250,000 cells per well into a 12-well tissue culture plate in 1 ml of media and left to incubate overnight. The indicated drug or vehicle control was added to each well, and the plate was agitated and left to incubate for 10 min. The cells were then treated with LPS (1 µg/ml) or an equivalent volume of PBS, agitated, and left to incubate for 3 h. Cells were washed with PBS and then RNA isolation was performed using RNeasy Plus Micro Kit (74134; Qiagen). cDNA was produced using GoScript Reverse Transcriptase (A5004; Promega) and a quantitative PCR was performed using SensiFast SYBR (98020; Bioline) and Bio-Rad CFX Connect thermocycler. Each datum represents an individual, biological replicate that is the mean of duplicate technical replicates. Fold-changes are all reported relative to untreated controls for each experiment and were calculated using the ∆∆Ct method, with β2-microglobulin used as the housekeeping gene for each sample. The experiment was performed similarly with BV-2 microglia and alveolar macrophages, except that cells were plated at a density of 100,000 cells per well into a 24-well tissue culture plate with 1 ml of media per well.
(In qPCR the cycle at which signal appears reflects the starting amount.)

The subject of the next data set is HeLa cells. Nature of the data set: LDH-release cytotoxicity assay. To be noted: 24 h. It is filed as cell-based. The method, then:
WT HeLa cells were plated at a density of 10,000 cells per well into a 96-well tissue culture microplate (3610; Costar). AAL-149, VPC01091.4, or vehicle at 0.1, 1, 5, 10, and 25 μM was added to cells with media for a final volume of 100 μl and incubated for 24 h. LDH release was quantified using a CyQUANT LDH Cytotoxicity Assay (C20300; Thermo Fisher Scientific) and a FlexStation 3 plate reader using SoftMax […] (Molecular Devices).

For data set [1], the system named is LPS-induced endotoxemia in mice. In words: Lethal dose (LD50) LPS mouse model. To be noted: LD50 LPS + 30 mg/kg. It is filed as in vivo.

T1 sequence (Q923J1 whole entry): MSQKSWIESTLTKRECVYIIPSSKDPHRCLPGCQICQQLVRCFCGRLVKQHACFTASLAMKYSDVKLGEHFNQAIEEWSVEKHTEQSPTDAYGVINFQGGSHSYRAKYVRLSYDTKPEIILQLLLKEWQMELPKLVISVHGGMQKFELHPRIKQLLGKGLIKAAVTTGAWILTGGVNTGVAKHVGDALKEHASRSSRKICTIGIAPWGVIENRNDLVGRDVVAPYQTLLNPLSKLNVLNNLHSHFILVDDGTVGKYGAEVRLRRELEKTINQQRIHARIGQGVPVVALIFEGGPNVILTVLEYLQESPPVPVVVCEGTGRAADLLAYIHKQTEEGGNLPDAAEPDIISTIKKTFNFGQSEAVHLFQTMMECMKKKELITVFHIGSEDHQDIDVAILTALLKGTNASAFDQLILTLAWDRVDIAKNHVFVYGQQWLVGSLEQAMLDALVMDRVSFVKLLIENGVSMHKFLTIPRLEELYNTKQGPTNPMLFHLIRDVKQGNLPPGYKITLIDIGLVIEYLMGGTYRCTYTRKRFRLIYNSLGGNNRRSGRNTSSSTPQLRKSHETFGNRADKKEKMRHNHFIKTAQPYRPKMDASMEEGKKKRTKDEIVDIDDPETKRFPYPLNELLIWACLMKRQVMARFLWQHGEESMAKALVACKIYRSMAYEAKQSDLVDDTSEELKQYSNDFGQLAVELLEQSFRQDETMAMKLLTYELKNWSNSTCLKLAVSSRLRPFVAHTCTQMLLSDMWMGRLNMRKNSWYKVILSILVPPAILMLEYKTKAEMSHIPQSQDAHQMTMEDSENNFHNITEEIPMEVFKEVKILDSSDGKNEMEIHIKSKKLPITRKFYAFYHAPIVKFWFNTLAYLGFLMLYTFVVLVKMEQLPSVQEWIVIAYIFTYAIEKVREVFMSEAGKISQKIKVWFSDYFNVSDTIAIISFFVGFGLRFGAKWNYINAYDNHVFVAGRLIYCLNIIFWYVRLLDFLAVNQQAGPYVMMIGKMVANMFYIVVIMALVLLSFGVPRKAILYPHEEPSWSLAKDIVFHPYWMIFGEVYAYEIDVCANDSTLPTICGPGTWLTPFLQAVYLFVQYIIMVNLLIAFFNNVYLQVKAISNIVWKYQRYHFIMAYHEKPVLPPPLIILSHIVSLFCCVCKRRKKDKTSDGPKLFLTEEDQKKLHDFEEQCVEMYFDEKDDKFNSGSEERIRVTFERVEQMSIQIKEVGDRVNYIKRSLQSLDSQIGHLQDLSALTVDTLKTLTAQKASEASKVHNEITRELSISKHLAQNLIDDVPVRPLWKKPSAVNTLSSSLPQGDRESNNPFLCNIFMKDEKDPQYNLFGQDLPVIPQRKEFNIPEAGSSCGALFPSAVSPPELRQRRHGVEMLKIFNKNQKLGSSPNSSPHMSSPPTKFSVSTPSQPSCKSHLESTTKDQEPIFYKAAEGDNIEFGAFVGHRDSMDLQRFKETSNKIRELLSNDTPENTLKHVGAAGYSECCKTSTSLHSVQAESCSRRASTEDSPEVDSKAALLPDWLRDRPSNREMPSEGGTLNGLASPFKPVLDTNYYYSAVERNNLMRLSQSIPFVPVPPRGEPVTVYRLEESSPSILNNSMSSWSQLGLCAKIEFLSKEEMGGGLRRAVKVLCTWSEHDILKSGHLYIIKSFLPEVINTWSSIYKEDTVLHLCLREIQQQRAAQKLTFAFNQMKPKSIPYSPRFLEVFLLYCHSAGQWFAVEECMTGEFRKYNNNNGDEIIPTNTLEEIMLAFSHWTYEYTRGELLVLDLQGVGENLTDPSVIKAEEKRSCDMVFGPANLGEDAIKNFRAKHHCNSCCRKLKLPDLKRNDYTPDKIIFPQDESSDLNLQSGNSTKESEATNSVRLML

Take `CCCCCCCCc1ccc([C@@H]2CC[C@@](N)(CO)C2)cc1` [VPC01091.4, ((1S,3R)-1-amino-3-(4-octylphenyl)cyclopentyl)methanol]: the “Effect on whole-cell TRPM7 current (IM7)” value on mouse TRPM7 (5 µM) is listed as “current inhibition”. The IC50 on mouse TRPM7 (peak current at +100 mV, HEK 293T overexpressing mouse TRPM7, Hill slope -1.0, read-out: IC50 for inhibition of TRPM7 current (IM7)) was found to be 0.665 µM. Besides, in the data set with S1P receptors, the “Activity at S1P receptors” value is recorded as “not active”. Moreover, the “LPS-induced IL-1β expression in TRPM7 KO BMDMs” value with BMDMs (10 µM VPC4, 10 µM AAL-149, 5 µM FTY720, 30 μM NS8593) is “able to suppress”. Besides, the “LPS-induced IL-6 expression in Trpm7 KO BMDMs” value with BMDMs (10 µM, effect on top of genetic deletion) is reported as “additive effect”. Further, the “Cytotoxicity (LDH release)” value with HeLa cells (25 μM, compared with positive control of 100% cytotoxicity) is reported as 4%; with HeLa cells (dosages up to 10 µM), “did not result in any significant cytotoxicity”. The “Mean cytotoxicity (LDH release)” value in the data set with HeLa cells (each dose up to 25 µM) is less than 5%. The Survival rate in data set [1] (132 h, LPS-only 50%, control 100%, P = 0.127) was found to be 83.33%. Further, the “Clinical scores (symptoms)” value in data set [1] (vs LPS only, 132 h) is on record as “significantly reduced at a number of timepoints”. Also, the “Weight change from baseline” value in data set [1] (vs LPS only, after first 48 h) is “recovering at a higher nadir and at an earlier timepoint”.
